From patent publication US9757375B2, “Compounds that inhibit human DNA ligases and methods of treating cancer” (University of Maryland, Baltimore, priority 2007, dated 2017)
Like-named read-outs stand apart in the source and are kept apart here.

Experiments:
Format in all cases: cell-based, human
[1] = tested on: HCT116 cells; experiment: Cell proliferation screen (SYBR Green, Biomek FX); conditions: for inhibition at 50 µM: Homo sapiens, HCT-116, read-out: % growth inhibition HCT116 50 uM; for Growth_Inh % (50 μM) HCT116: percentage of values obtained with DMSO alone
Protocol: (§1) The ability of the compounds identified by CADD to inhibit proliferation of normal mammary epithelial MCF10A cells and colon carcinoma HCT116 cells was determined using a Biomek FX Laboratory Automation Workstation (Beckman Coulter, Inc., Fullerton, Calif.). On day 0, 20 μl of complete medium containing the appropriate number of cells (150-300) was plated per well of a 384-well tissue plate (Fisher Scientific, Hampton, N.H.) and incubated overnight at 37° C. with 5% CO2 and 90% humidity. Next day, day 1, compounds were prepared by serial dilution with complete medium to yield the concentration 100 μM, and 20 μl was added to each well containing 20 μl of medium and cells yielding the final concentration 50 μM in 40 μl volume. Plates were incubated for additional 3 days (days-2-5) until control cells (0.5% DMSO) reached ˜70-80% confluency. On day 6, 40 μl of lysis/detection solution containing 1.2% Igepal CA-630 (Sigma) and a 1:1000 dilution of SYBR Green I nucleic acid stain (Molecular Probes, Eugene, Oreg.) was added to each well. Following an overnight incubation at 37° C., total fluorescence was measured using a Fluorostar Galaxy plate reader with a 485 nm excitation filter and 520 nm emission filter set (BMG Labtech, Inc., Durham, N.C.). Data was exported to a custom program that determined growth inhibition by dividing each individual fluorescence value by the average of fluorescence values obtained with cells treated with DMSO alone.
(§2) The 192 human DNA ligase inhibitors were screened in parallel for effects on proliferation and the ability to potentiate the effects of several DNA damaging agents using two cell human lines, a colon cancer line HCT116 and a normal breast epithelial cell line MCF10A using a Biomek FX Laboratory Automation Workstation as described (23). The DNA damaging agents used, methyl methanesulfonate (MMS), camptothecin, cis-platinum, 3 aminobenzamide and ionizing radiation, are representatives of classes of agents used to treat cancer. Briefly, HCT116 and MCF10A cells were plated in 96 well plates such that the cultures were about 80% confluent after 5 days incubation. Compounds were added to the cultures at either 15 μM or 50 μM 1 day after plating. After incubation for 3 days, cell lysed in a solution containing 1.2% Igepal CA-630 and SYBR green that stains DNA (1:1000, Molecular Probes, Eugene, Oreg.). Subsequently, fluorescence was measured per well. The studies with DNA damaging agents were performed as follows. […] For ionizing radiation, cells were pre-incubated with the compounds at 50 μM for 1 hour prior to exposure to 2 gray of ionizing radiation. Cultures were incubated for 3 days and then treated as above.

[2] = tested on: MCF10A cells; experiment: Cell proliferation screen (SYBR Green, Biomek FX); conditions: for inhibition at 50 µM: Homo sapiens, MCF-10A; for Growth_Inh % (50 μM) MCF10A: percentage of values obtained with DMSO alone
Protocol: as §1, §2

[3] = tested on: HCT116 and MCF10A cells; experiment: Cell proliferation screen, result stated for one or both cell lines; conditions: in vivo cell culture screen
Protocol: as §1, §2

[4] = tested on: MCF7, HCT116, HeLa, and MCF10A cells; experiment: Survival assay on cell panel (FIG. 9); conditions: for EC50 / cell survival: remark in words: cell line not stated; for potentiation of the cytotoxic effects of DNA-damaging agents: L67 3 μmol/L with MMS (MCF7 vs MCF10A), L189 20 μmol/L with ionizing radiation (HCT116 vs MCF10A), FIG. 9B; for cytotoxicity (cell survival): MCF7, HCT116, HeLa, MCF10A, FIG. 9A
Excerpt: FIG. 9. […] A, effect of L67 (left) and L189 (right) on the survival of MCF7 (Δ), HCT116 (□), HeLa (⋄), and MCF10A (upsidedown triangle) cells. B, normal breast epithelial MCF10A cells (open symbols) and breast cancer MCF7 cells (filled symbols) in the absence (circles) or presence of 3 μmol/L of L67 (squares) were exposed to increasing concentrations of MMS (left). Normal breast epithelial MCF10A cells (open symbols) and colon cancer HCT116 cells (filled symbols) in the absence (circles) or presence of 20 μmol/L of L189 (squares) were exposed to increasing doses of ionizing radiation (right). C, hLigI (I), hLigIIIα (III), and hLigIV (IV) were detected in extracts (400 μg) of the indicated cell lines by immunoblotting. To control for extract loading β-actin was also detected by immunoblotting.
(§3) For survival assays, cells were plated in 6 well plates and grown either in the absence or presence of ligase inhibitors. Where indicated, either MMS (0-50 μM) was added to the medium or the cells were irradiated in a Cs-137 irradiator (0-2.5 Gy). After two weeks, colonies were stained with crystal violet (Sigma) and then counted.

[5] = tested on: HCT116 cells; experiment: Colony forming (survival) assay; conditions: for potentiation of killing by ionizing radiation: HCT116, 2 gray
Protocol: as §3
(§4) To confirm that the DNA ligase inhibitors directly kill cells and potentiate cell killing by DNA damaging agents, we performed colony forming assays.
(§5) Different concentrations of Compound 184 were added to asynchronous subconfluent populations of HCT116, MCF7 and MCF10A cells. Colonies were counted after two weeks. (FIG. 6A).
(§6) Different concentrations of Compound 151 were added to asynchronous subconfluent populations of HCT116 and MCF10A cells in the absence or presence of MMS (50 μM). Colonies were counted after two weeks. (FIG. 6B).
(§7) Different concentrations of Compound 189 were added to asynchronous subconfluent populations of HCT116 and MCF10A cells. After 1 hour, cultures were irradiated with 2 gray of ionizing radiation. Colonies were counted after two weeks. (FIG. 6C).
(§8) Different concentrations of Compound 67 were added to asynchronous subconfluent populations of HCT116, MCF7 and MCF10A cells. After 1 hour, cultures were irradiated with 2 gray of ionizing radiation. Different concentrations of Compound 67 were added to asynchronous subconfluent populations of HCT116 and MCF10A cells in the absence or presence of MMS (50 μM). Colonies were counted after two weeks. (FIG. 6D).

[6] = tested on: MCF10A cells; experiment: Colony forming (survival) assay; conditions: colonies after two weeks; for effect on MMS cytotoxicity: MMS 50 μM
Protocol: as §3, §4, §5, §6, §7, §8

[7] = 50 μM, read-out: In vivo growth inhb MCF10A % Inhb at 50
[8] = read-out: % growth inhibition MCF10A 50 uM

Row | SMILES | In vitro growth inhb HCT116 % Inhb at 50 (μM) [1] | inhibition at 50 µM [1] | inhibition at 50 µM [2, 7] | inhibition at 50 µM [2, 8] | inhibition of cell proliferation, in words [3] | Growth_Inh % (50 μM) MCF10A ([2]; 50 μM) | EC50 ([4]; Homo sapiens) | Growth_Inh % (50 μM) HCT116 [1] | further results
1 | C/C(O)=C1/C(=O)N(c2nc3ccccc3s2)N=C1c1ccccc1 [Compound 43] | 70% | 70% | 70% | 70% | inhibited cell proliferation | – | – | – | –
2 | O=C(O)CSc1cc(Cl)c2nonc2c1[N+](=O)[O-] [Compound 64] | – | 70% | 40% | 40% | inhibited cell proliferation | 40% | ~50 µM | – | –
3 | Cc1c(Br)cc(NCC(=O)N/N=C\c2cc([N+](=O)[O-])ccc2O)cc1Br [Compound 67] | 70% | 70% | 70% | 70% | inhibited cell proliferation | 70% | ~10 µM | 70% | potentiation of killing by ionizing radiation ([5]; colonies after two weeks): potentiates; effect on ionizing radiation-induced cytotoxicity ([6]; 2 gray): no significant effect; effect on MMS cytotoxicity [6]: no significant effect; potentiation of the cytotoxic effects of DNA-damaging agents [4]: potentiate the cytotoxic effects of DNA-damaging agents; cytotoxicity (cell survival) [4]: cytotoxic
4 | O=c1[nH]ncc(N/N=C\c2ccc(O)c([N+](=O)[O-])c2)c1Cl [Compound 82] | 40% | 40% | 70% | 70% | inhibited cell proliferation | 70% | ~50 µM | 40% | cell survival: remark in words [4]: cytostatic, G1
5 | O=C(Cn1cnc([N+](=O)[O-])n1)N/N=C/c1ccc(O)cc1O [Compound 151] | 70% | 70% | 70% | 70% | inhibited cell proliferation | – | ~10 µM | – | potentiation of killing by MMS ([5]; HCT116, MMS 50 μM, colonies after two weeks): markedly potentiates; effect on MMS cytotoxicity [6]: no significant effect
6 | O=C1Nc2ccccc2Oc2cc([N+](=O)[O-])cc([N+](=O)[O-])c21 [Compound 180] | – | – | – | – | – | 70% | – | 70% | –
7 | CS(=O)(=O)NNC(=O)C(=O)NNc1ccccc1 [Compound 184] | 40% | – | – | – | inhibited cell proliferation | – | – | – | % growth inhibition HCT116 50 uM ([1]; 50 uM): 40%; % growth inhibition MCF10A 50 uM ([2]; 50 uM): 70%; % growth inhibition of MCF10A cells in culture at 50 uM ([2]; 50 μM): 70%; cell killing (colony formation) ([5]; HCT116, compound alone, compared with MCF10A, FIG. 6A): more effective at killing; cell killing (colony formation) ([6]; compound alone, FIG. 6A): kills; EC50 [4]: ~10 µM
8 | Nc1nc(S)nc(O)c1/N=C/c1ccccc1 [Compound 189] | 70% | 70% | 70% | 70% | inhibited cell proliferation | 70% | ~50 µM | 70% | potentiation of killing by ionizing radiation ([5]; colonies after two weeks): markedly potentiates; effect on MMS cytotoxicity [6]: no significant effect; potentiation of the cytotoxic effects of DNA-damaging agents [4]: potentiate the cytotoxic effects of DNA-damaging agents; cytotoxicity (cell survival) [4]: cytotoxic
9 | COc1ccc(-c2cnc3c(O)nc(O)nc3n2)cc1 [Compound 190] | 40% | 40% | 40% | 40% | inhibited cell proliferation | 70% | – | 40% | –
10 | Cc1oc(C(=O)O)cc1CSCc1cc(C(=O)O)c(C)o1 [Compound 197] | – | – | – | – | – | – | – | – | cell survival: remark in words [4]: no activity
11 | O=C(c1ccc(O)cc1)c1ccccc1O [Compound 200] | – | 70% | – | 70% | – | – | – | – | cell survival: remark in words [4]: metabolite active
12 | CCCCC(=O)c1ccc(O)cc1O [Compound 213] | 70% | 70% | 70% | 70% | inhibited cell proliferation | – | – | – | –
